Measurements reported in ChEMBL document CHEMBL4033722, “Carboxylated aurone derivatives as potent inhibitors of xanthine oxidase” (Bioorg Med Chem, 2017).

What was measured:
[1] = biological target: T1, Xanthine dehydrogenase/oxidase (Bos taurus, UniProt P80457); experiment: Inhibition of bovine milk xanthine-oxidase using xanthine as substrate after 5 mins by spectrophotometric method
[2] = biological target: T1, Xanthine dehydrogenase/oxidase; experiment: Mixed-type inhibition of bovine milk xanthine oxidase assessed as enzyme-inhibitor complex using varying levels of xanthine as substrate by Line-weaver burk plot analysis
[3] = biological target: T1, Xanthine dehydrogenase/oxidase; experiment: Mixed-type inhibition of bovine milk xanthine oxidase assessed as enzyme-substrate-inhibitor complex using varying levels of xanthine as substrate by Line-weaver burk plot analysis
[4] = biological target: T1, Xanthine dehydrogenase/oxidase; experiment: Inhibition of bovine milk xanthine-oxidase up to 10 uM using xanthine as substrate after 5 mins by spectrophotometric method; conditions: cattle

T1 sequence (P80457 whole entry): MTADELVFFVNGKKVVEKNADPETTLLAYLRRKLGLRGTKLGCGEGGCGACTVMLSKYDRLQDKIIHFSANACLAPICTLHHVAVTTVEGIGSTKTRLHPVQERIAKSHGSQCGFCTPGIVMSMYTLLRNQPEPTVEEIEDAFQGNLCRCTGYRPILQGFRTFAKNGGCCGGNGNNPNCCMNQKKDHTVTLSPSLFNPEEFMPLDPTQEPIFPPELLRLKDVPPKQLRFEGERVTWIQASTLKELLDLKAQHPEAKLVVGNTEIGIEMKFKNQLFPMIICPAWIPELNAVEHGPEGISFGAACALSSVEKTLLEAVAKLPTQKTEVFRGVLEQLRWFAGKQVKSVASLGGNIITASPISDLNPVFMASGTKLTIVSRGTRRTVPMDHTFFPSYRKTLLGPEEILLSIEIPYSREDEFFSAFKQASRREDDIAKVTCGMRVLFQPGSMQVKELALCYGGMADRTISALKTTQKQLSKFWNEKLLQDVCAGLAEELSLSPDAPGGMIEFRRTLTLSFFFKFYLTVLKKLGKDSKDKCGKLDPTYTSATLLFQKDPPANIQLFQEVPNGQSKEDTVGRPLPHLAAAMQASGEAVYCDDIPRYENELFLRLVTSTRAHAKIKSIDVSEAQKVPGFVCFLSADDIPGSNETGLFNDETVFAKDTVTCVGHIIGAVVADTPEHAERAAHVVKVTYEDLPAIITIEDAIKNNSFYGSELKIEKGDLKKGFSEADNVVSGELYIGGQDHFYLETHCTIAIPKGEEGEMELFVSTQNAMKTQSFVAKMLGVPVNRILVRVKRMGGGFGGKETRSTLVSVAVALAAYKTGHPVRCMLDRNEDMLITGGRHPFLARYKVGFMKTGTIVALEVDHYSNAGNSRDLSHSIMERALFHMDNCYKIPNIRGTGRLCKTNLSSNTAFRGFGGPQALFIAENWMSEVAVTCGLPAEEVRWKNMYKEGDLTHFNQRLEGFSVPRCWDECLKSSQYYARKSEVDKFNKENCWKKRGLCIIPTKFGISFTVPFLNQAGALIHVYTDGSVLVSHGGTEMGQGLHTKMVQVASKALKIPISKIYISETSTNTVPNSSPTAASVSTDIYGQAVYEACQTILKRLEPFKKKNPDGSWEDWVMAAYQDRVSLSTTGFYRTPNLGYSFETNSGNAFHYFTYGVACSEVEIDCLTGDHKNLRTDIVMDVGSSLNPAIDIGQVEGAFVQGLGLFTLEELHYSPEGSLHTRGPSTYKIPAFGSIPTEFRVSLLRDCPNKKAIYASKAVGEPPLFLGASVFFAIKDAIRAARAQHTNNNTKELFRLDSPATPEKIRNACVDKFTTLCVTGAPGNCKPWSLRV

| Compound | IC50 [1] | other results |
| --- | --- | --- |
| Cc1ccc(C)c(COc2ccc3c(c2)O/C(=C\c2ccc(C(=O)O)cc2)C3=O)c1 | 62 nM | – |
| O=C(O)COc1ccc2c(c1)O/C(=C\c1ccccc1Cl)C2=O | 1230 nM | – |
| O=C(O)c1ccc(/C=C2\Oc3cc(O)ccc3C2=O)cc1 | 68 nM | – |
| O=C(O)c1ccc(/C=C2\Oc3cc(OCc4cccc5ccccc45)ccc3C2=O)cc1 | 69 nM | – |
| O=C(O)COc1ccc2c(c1)O/C(=C\c1ccc(C(=O)O)cc1)C2=O | 150 nM | – |
| COc1ccc2c(c1)O/C(=C\c1ccc(C(=O)O)cc1)C2=O | 80 nM | – |
| O=C1/C(=C/c2ccc(O)c(O)c2)Oc2cc(O)ccc21 [SULFURETIN] | 3100 nM | – |
| COc1ccc(/C=C2\Oc3cc(OCC(=O)O)ccc3C2=O)cc1 | 1570 nM | – |
| C=C(C)COc1ccc2c(c1)O/C(=C\c1ccc(C(=O)O)cc1)C2=O | 46 nM | inhibition (INH) ([1]; cattle, 5 min): Dose-dependent effect; Ki [2]: 128 nM; Ki [3]: 1200 nM |
| COC(=O)COc1ccc2c(c1)O/C(=C\c1ccccc1)C2=O | – | inhibition (INH) [4]: Not Active |
| COc1ccccc1/C=C1\Oc2cc(OCC(=O)O)ccc2C1=O | 1300 nM | – |
| O=C(O)COc1ccc2c(c1)O/C(=C\c1ccccc1C(=O)O)C2=O | 3840 nM | – |
| O=C(O)c1ccc(/C=C2\Oc3cc(OCc4ccccc4)ccc3C2=O)cc1 | 61 nM | – |
| CC(Oc1ccc2c(c1)O/C(=C\c1ccccc1Cl)C2=O)C(=O)O (stereo unspecified) | – | inhibition (INH) [4]: Not Active |
| COc1ccc(/C=C2\Oc3cc(OCC(=O)O)ccc3C2=O)c(OC)c1 | 1270 nM | Ki [2]: 2.9 nM; Ki [3]: 34.3 nM |
| O=C(O)COc1ccc2c(c1)O/C(=C\c1ccccc1)C2=O | 4470 nM | – |
